Experimental data taken from ChEMBL document CHEMBL1201862, “PubChem BioAssay data set” (2004).
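Protocol summary: plate cells (96-well), add compound at 5 concentrations, incubate 48 h, interpolate endpoints linearly. GI50 marks 50% less growth.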 Activity calls are given as the source filed them. Cut-off read from the data, not from the text of the source: active = GI50 up to about 1.1 µM and inactive = higher.

How the values were obtained:
Experiment in all cases: NCI tumour cell line growth inhibition, 48 h
[1] = test system: SF-268
[2] = test system: XF498
[3] = test system: LOX IMVI
[4] = test system: SNB-75
[5] = test system: DMS-114
[6] = test system: OVCAR-5
[7] = test system: IGROV-1
[8] = test system: NCI-H460
[9] = test system: HCT-15
[10] = test system: HOP-92
[11] = test system: SN12C
[12] = test system: SK-OV-3
[13] = test system: SK-MEL-2
[14] = test system: M19-MEL
[15] = test system: SK-MEL-28
[16] = test system: COLO 205
[17] = test system: RPMI-8226
[18] = test system: SNB-19
[19] = test system: NCI-H522
[20] = test system: HL-60

| Compound | GI50 [1] | GI50 [2] | GI50 [3] | GI50 [4] | GI50 [5] | GI50 [6] | GI50 [7] | GI50 [8] | GI50 [9] [µM] | GI50 [10] | GI50 [11] | GI50 [12] | GI50 [13] | GI50 [14] | GI50 [15] | GI50 [16] | GI50 [17] | GI50 [18] | GI50 [19] | GI50 [20] |
| --- | --- | --- | --- | --- | --- | --- | --- | --- | --- | --- | --- | --- | --- | --- | --- | --- | --- | --- | --- | --- |
| CC(=O)NNc1nc(C)c(C(=O)NNC(=O)C(=O)Nc2cccc(C(C)=O)c2)s1 | 21.5 µM (inactive) | 16.4 µM (inactive) | 21.2 µM (inactive) | 17.3 µM (inactive) | 18.3 µM (inactive) | > 100 µM (inactive) | 26.5 µM (inactive) | 12.7 µM (inactive) | 21.2 | 13.4 µM (inactive) | 15.9 µM (inactive) | 18.3 µM (inactive) | 36.1 µM (inactive) | 19.9 µM (inactive) | 19.7 µM (inactive) | 53.6 µM (inactive) | 40.1 µM (inactive) | 41 µM (inactive) | 15.2 µM (inactive) | 25.5 µM (inactive) |
| COc1cc(C2(c3ncc[nH]3)SSSCC2O)ccc1O (stereo not given) | 15.8 µM (inactive) | > 71 µM (inactive) | 19.1 µM (inactive) | > 100 µM (inactive) | 18.2 µM (inactive) | > 100 µM (inactive) | 47.2 µM (inactive) | > 46.2 µM (inactive) | 33.1 | 6.25 µM (inactive) | 47.8 µM (inactive) | 66.4 µM (inactive) | > 100 µM (inactive) | 12.2 µM (inactive) | > 100 µM (inactive) | 25.6 µM (inactive) | 22.6 µM (inactive) | > 87.7 µM (inactive) | 29.4 µM (inactive) | 29.6 µM (inactive) |
| CC(NCCS(=O)(=O)O)C(=O)O (stereo not given) | > 100 µM (inactive) | > 100 µM (inactive) | > 100 µM (inactive) | > 100 µM (inactive) | > 100 µM (inactive) | > 100 µM (inactive) | > 100 µM (inactive) | > 100 µM (inactive) | > 100 | > 100 µM (inactive) | > 100 µM (inactive) | > 100 µM (inactive) | > 100 µM (inactive) | > 100 µM (inactive) | > 100 µM (inactive) | > 100 µM (inactive) | > 100 µM (inactive) | > 100 µM (inactive) | > 100 µM (inactive) | > 100 µM (inactive) |
| CC(C)C1NC(=O)CC(c2ccccc2)N(N=O)C1c1ccccc1 (stereo not given) | > 100 µM (inactive) | 37.8 µM (inactive) | > 100 µM (inactive) | > 100 µM (inactive) | > 95.7 µM (inactive) | > 100 µM (inactive) | > 100 µM (inactive) | > 100 µM (inactive) | > 100 | > 51.3 µM (inactive) | > 100 µM (inactive) | > 61.1 µM (inactive) | > 100 µM (inactive) | > 100 µM (inactive) | > 100 µM (inactive) | > 100 µM (inactive) | 81.8 µM (inactive) | > 100 µM (inactive) | 37.5 µM (inactive) | 74.5 µM (inactive) |
| O=C1C2=C(C3=NCCc4c[nH]c1c43)c1c(Br)cc(Br)cc1CCN2 | 2.59 µM (inactive) | 10.7 µM (inactive) | 1.23 µM (inactive) | 8.93 µM (inactive) | 2.02 µM (inactive) | 4.19 µM (inactive) | 4.06 µM (inactive) | 3.03 µM (inactive) | 2.21 | 9.18 µM (inactive) | 2.28 µM (inactive) | 12.2 µM (inactive) | 3.33 µM (inactive) | 0.661 µM (active) | 8.49 µM (inactive) | 1.29 µM (inactive) | 1.24 µM (inactive) | 11.2 µM (inactive) | 1.66 µM (inactive) | 1.62 µM (inactive) |
| CO/C=C1\OC(=O)C=C1OC | > 100 µM (inactive) | > 100 µM (inactive) | > 100 µM (inactive) | > 100 µM (inactive) | > 100 µM (inactive) | > 100 µM (inactive) | > 100 µM (inactive) | > 100 µM (inactive) | > 100 | > 100 µM (inactive) | > 100 µM (inactive) | > 100 µM (inactive) | > 100 µM (inactive) | > 100 µM (inactive) | > 100 µM (inactive) | > 100 µM (inactive) | > 100 µM (inactive) | > 100 µM (inactive) | > 100 µM (inactive) | > 100 µM (inactive) |
| O=C(O)CNS(=O)(=O)c1ccc(NC(=O)Nc2ccccc2)cc1 | > 100 µM (inactive) | > 100 µM (inactive) | > 100 µM (inactive) | > 100 µM (inactive) | > 100 µM (inactive) | > 100 µM (inactive) | > 37.6 µM (inactive) | > 100 µM (inactive) | > 100 | > 100 µM (inactive) | > 100 µM (inactive) | > 100 µM (inactive) | > 100 µM (inactive) | > 38 µM (inactive) | > 100 µM (inactive) | > 100 µM (inactive) | > 100 µM (inactive) | > 100 µM (inactive) | > 100 µM (inactive) | > 31.6 µM (inactive) |
| Cc1c2cc[n+](Cc3ccc(I)cc3)cc2c(C)c2c1[nH]c1ccccc12 | 0.495 µM (active) | 0.433 µM (active) | 2.16 µM (inactive) | 0.0914 µM (active) | 0.605 µM (active) | 1.37 µM (inactive) | 1.1 µM (active) | 0.281 µM (active) | 7.8 | 0.56 µM (active) | 0.548 µM (active) | 3.84 µM (inactive) | 0.614 µM (active) | 0.254 µM (active) | 1.45 µM (inactive) | 0.61 µM (active) | 0.518 µM (active) | 0.471 µM (active) | 0.692 µM (active) | 0.488 µM (active) |
